Source: the NIST ThermoML archive (doi:10.1021/acs.jced.5b01023)

Test: refractive index (Na D-line) (dimensionless); xn = mol fraction of the nth substance listed
Conditions: 101 kPa, Liquid, Standard Abbe refractometry

CC(=O)[O-].CCn1cc[n+](C)c1 [1-ethyl-3-methylimidazolium acetate] + CC(C)O
refractive index
Conditions | x1 = 0.1 | x1 = 0.2 | x1 = 0.3 | x1 = 0.4 | x1 = 0.5001 | x1 = 0.5998 | x1 = 0.7 | x1 = 0.7994 | x1 = 0.9 | x1 = 1
288.15 K | 1.40475 | – | 1.43991 | 1.45344 | 1.4651 | 1.47535 | 1.48406 | 1.4912 | 1.49776 | 1.50285
298.15 K | 1.40107 | – | 1.43669 | 1.45075 | 1.46242 | 1.47243 | 1.48131 | 1.48861 | 1.49526 | 1.50069
308.15 K | 1.39762 | 1.42276 | 1.4336 | 1.4475 | – | 1.46954 | 1.4784 | 1.48593 | 1.49257 | 1.49803
318.15 K | 1.39423 | 1.41947 | 1.43066 | 1.44471 | 1.45641 | 1.46689 | 1.47561 | 1.48324 | 1.48986 | 1.49527
328.15 K | 1.39112 | 1.41637 | 1.42763 | 1.44229 | 1.45352 | 1.46489 | 1.47293 | 1.48046 | 1.48714 | 1.49266
338.15 K | 1.38677 | 1.41309 | 1.42464 | 1.43908 | 1.45107 | 1.45943 | 1.47054 | 1.47775 | 1.48466 | 1.48995

CC(=O)[O-].CCn1cc[n+](C)c1 [1-ethyl-3-methylimidazolium acetate] + CCCO
refractive index
Conditions | x1 = 0.1017 | x1 = 0.2004 | x1 = 0.3001 | x1 = 0.3998 | x1 = 0.4997 | x1 = 0.5996 | x1 = 0.6998 | x1 = 0.8002 | x1 = 0.8991 | x1 = 1
288.15 K | 1.41146 | 1.42938 | 1.44451 | 1.45711 | 1.46775 | 1.47687 | 1.485 | 1.49189 | 1.49712 | 1.50285
298.15 K | 1.40825 | 1.42622 | 1.44134 | 1.45401 | 1.46473 | 1.47411 | 1.48219 | 1.48919 | 1.49506 | 1.50069
308.15 K | 1.40453 | 1.42291 | 1.43827 | 1.45119 | 1.46189 | 1.47127 | 1.47942 | 1.48632 | 1.49221 | 1.49803
318.15 K | 1.40109 | 1.41973 | 1.43523 | 1.44803 | 1.45888 | 1.4683 | 1.47661 | 1.48365 | 1.48899 | 1.49527
328.15 K | 1.39753 | 1.41631 | 1.43208 | 1.44542 | 1.45593 | 1.4657 | 1.47372 | 1.48089 | 1.48673 | 1.49266
338.15 K | 1.39391 | 1.41301 | 1.4291 | 1.44211 | 1.45308 | 1.46267 | 1.4711 | 1.47818 | 1.48324 | 1.48995
348.15 K | 1.39115 | 1.41033 | 1.42601 | 1.43912 | 1.45026 | 1.45993 | 1.46823 | 1.47546 | 1.4803 | 1.48721
